The source of these data is patent US20190225643A1, “NOVEL NUCLEOSIDE ANALOGS AND USE THEREOF IN THERAPEUTIC TREATMENT” (CORNELL UNIVERSITY, priority 2016, published 2019).

Experiment [1] has as its system KSHV- cell lines. As to the kind of experiment: CellTiter-Glo viability assay, KSHV- cell line panel. It is filed as cell-based. As to conditions: Homo sapiens, 48 h, read-out: LC50. As for the experimental part:
(§1) Cell viability assays were performed by plating log-phase cells in RPMI complete media with 20% FBS at 1*10^5 cells/mL, with concentrations of 6-ETI or phospho-6-ETI ranging from 0.1 nM to 100 μM. ATP content at 24, 48 and 72 hours post-treatment was measured by the CellTiter-Glo kit (Promega, Madison, Wis.), or by Trypan blue assay as indicated. The LC50 for 6-ETI in each cell line was determined using online EC50 software at changbioscience.com or using GraphPad Prism to determine the LC50 for 6-ETI, phospho-6-ETI and nucleoside analogs in MM cell lines and primary MM patient samples.
KSHV+ primary effusion lymphoma (PEL) cell lines (BC1, BC2, BC3, BC5, BCBL1, BCP1), EBV+ lymphoblastoid cell line LCL9001, EBI+ diffuse large B-cell lymphomas (DLBCL) with immunoblastic features (IBL1, IBL4), and EBV+ effusion DLBCL BCKN1 were cultured in RPMI-1640 medium (Invitrogen) supplemented with 50 μg/mL Gentamicin (Sigma-Aldrich) and 10% or 20% heat-inactivated fetal bovine serum, respectively. Uninfected DLBCL cell lines (Ly2, Ly7) were cultured in IMDM (Invitrogen) supplemented with 50 μg/mL Gentamicin and 10% FBS. Multiple myeloma (MM) cell lines U266 and MM1S were cultured in RPMI supplemented with 15%FBS and 50 μg/mL Gentamicin, while JJN3 was cultured in 40% IMDM/40% DMEM plus 20% FBS supplemented with 50 μg/mL Gentamicin. […]
(In general: Cellular ATP, detected with luciferase, serves as a proxy for viable cell number.)

The subject of experiment [2] is KSHV latent proteins LANA, vFLIP and vCyclin. The experiment can be described thus: Western blot of KSHV latent proteins. It is filed as cell-based. As for the experimental part: For all intracellular signaling studies, cell lines were plated at 2*10^5 cells/mL or at indicated densities in RPMI-1640 with 20% FBS, and treated with the stated concentrations of 6-ETI, from 6 to 48 hours. Immunoblotting was performed using the following antibodies: PARP (BD Pharmingen, 556494), LC3B (Cell Signaling, 2775S), phospho-l-listone H2AX.X S139 (Cell Signaling, 2577S), GAPDH (Gene Tex, GTX100118), ADK (Santa Cruz, sc-365470) vFLIP 6/14 antibody was a gift from Mary Collins at University College of London, vCyclin (Abcam, ab12208), LANA (Advanced Biotechnologies, 13-210-100), β-Actin (Sigma A5316), p65 (Cell Signaling C22B4, p50 (Cell Signaling 3035), October-1 (Cell Signaling 4428), p-IκBα (Santa Cruz 3-9 sc-8404), IκBα (Santa Cruz C-21 sc-371), pIKKα/β (ser 176)(Santa Cruz sc-21661), IKKα (Santa Cruz H-744 sc-7218).
On the technique in general: Immunoblotting shows a protein as a band on a membrane.

Experiment [3] concerns 6-ETI-resistant BC3 clones and xenograft cell lines 2-3 low and 3-5 low. The experiment can be described thus: Viability assay in 6-ETI-resistant BC3-derived cell lines. The class given is cell-based. As for the experimental part:
To generate 6-ETI resistant clones, BC3 cells were plated in RPMI-1640 with 50 μg/mL Gentamicin and 20% FBS under 6-ETI selection in multiple 96-well plates at 1*10^5 cells/mL. Selection was begun at 15 nM, 30 nM, or 60 nM 6-ETI. Cells were split every three days, with the dose of 6-ETI doubled at least 1×/week. Selection continued until a few clonal populations remained, after which the clones were expanded into fresh plates under selection with 10 μM 6-ETI. Clones retrieved were designated NSCE-1, NSCE-2, NSCE-3, NSCE-4, NSCE-5, NSCE-6, NSCE-7, NSCE-8, in chronological order of selection from the original plates.
The ascites from these mice were harvested ex vivo, and following Ficoll extraction, placed in culture in RPMI-1640 with 10% FBS.

The subject of experiment [4] is KSHV+ PEL cell lines. The experiment can be described thus: CellTiter-Glo viability assay, KSHV+ cell line panel. The class given is cell-based, human. As for the experimental part: as §1
KSHV+ primary effusion lymphoma (PEL) cell lines (BC1, BC2, BC3, BC5, BCBL1, BCP1), EBV+ lymphoblastoid cell line LCL9001, EBI+ diffuse large B-cell lymphomas (DLBCL) with immunoblastic features (IBL1, IBL4), and EBV+ effusion DLBCL BCKN1 were cultured in RPMI-1640 medium (Invitrogen) supplemented with 50 μg/mL Gentamicin (Sigma-Aldrich) and 10% or 20% heat-inactivated fetal bovine serum, respectively. Uninfected DLBCL cell lines (Ly2, Ly7) were cultured in IMDM (Invitrogen) supplemented with 50 μg/mL Gentamicin and 10% FBS. Multiple myeloma (MM) cell lines U266 and MM1S were cultured in RPMI supplemented with 15%FBS and 50 μg/mL Gentamicin, while JJN3 was cultured in 40% IMDM/40% DMEM plus 20% FBS supplemented with 50 μg/mL Gentamicin. Hodgkin's lymphoma (L428, L1236) and Burkitt's lymphoma cell lines (BJAB, Namalwa)were maintained in RPMI-1640 supplemented with Gentamicin and 10% FBS. All of the PEL cell lines and IBL1 were established in our laboratory from lymphomatous effusions except BCBL1, which was obtained from the AIDS and Cancer Specimen Bank. Burkitt lymphoma cell lines Namalwa and BJAB as well as the multiple myeloma cell line U266 were obtained from the American Type Culture Collection (ATCC). JJN3 cell line and Hodgkin cell lines (L428, L1236) were obtained from DSMZ. DLBCL cell lines LY2 and LY7 were provided by Riccardo Dana-Rivera (Columbia University), MM1S cell line was provided by Dr. Giorgio Inghiraini lab at Weill Cornell Medicine. […]

Experiment [5] has as its system DNA synthesis in U266 cells. The experiment can be described thus: Click-iT EdU DNA synthesis assay, MM cells. The class given is cell-based, human. As to conditions: 24 hrs. As for the experimental part:
BC3 and U266 cells were seeded at a density of 0.5 million cells/ml and treated with DMSO only, 1 μM or 1.0 μM 6-ETI for BC3 cells and 0.5 μM 6-ETI for U266 cells for 24 hrs. At 24 hrs post 6-ETI treatment, 0.5 million cells of each of the treated conditions were labeled with 10 μM of EdU for 2 hours then fixed for 30 min using 2% paraformaldehyde supplemented with 0.3M sucrose. Cells were then washed in PBS and perineabilized with 0.2% saponin, PBS with 1% BSA and 0.3M sucrose for 20 min at room temperature. During this incubation time, a click-iT cocktail mix containing, click iT reaction buffer, CuSO4, alexafluor488 and click iT reaction buffer additive was prepared according to the manufacturer's instructions. Cells were washed in PBS after permeabilization and the click-iT cocktail mix was added for 30 min at room temperature in the absence of light. To visualize DNA, cells were counterstained with Hoechst (1:1000) for another 30 min then washed and resuspended in PBS with 1% BSA. 20 μl of the resuspended cells were combined with 20 μl of mounting media Fluoromount-G (Southern biotech) and cells were mounted on Ibidi μ-slides. Cells were imaged using DeltaVision image restoration microscope (Rockefeller center).

Experiment [6] deals with p65/p50 binding to the NF-κB response element in BC3 PEL cell line. The experiment can be described thus: EMSA of NF-κB binding in BC3 cells. The class given is cell-based, human. As for the experimental part: BC3 or LCL9001 cells were plated at 5*10^5 cells/ml, and treated with the hit compounds at 25 μM or with NSC39368 at 5, 10, 25 and 50 μM for 24 hours. Nuclear extracts were obtained as previously described (Keller S. A. et al., Blood. 2000 96(7):2537-42), and electrophoretic mobility shift assays (EMSAs) were performed using an NF-κB-specific oligonucleotide probe.
(Mobility shift assays separate free from complexed probe on a gel.)

Turning to `CCSc1ncnc2c1ncn2[C@@H]1O[C@H](CO)C(O)[C@@H]1O` (stereo partly shown) [Compound 6-ETI, 6-ethylthioinosine], the CC50 in experiment [1] was 10 to 80 µM; in experiment [3] (Homo sapiens, xenograft cell lines 2-3 low and 3-5 low after selection with 10 μM 6-ETI, read-out: LC50 (the source's name)), over 100 µM; in experiment [4] (Homo sapiens, 48 h, read-out: LC50), 0.03 to 0.435 µM. For the same compound, the “latent viral protein expression” value in experiment [2] is on record as “no reduction was seen in latent viral protein expression”. Besides, the “resistance of selected clones” value in experiment [3] (clones NSCE-1, -2, -3, -6, -7, -8) is “fully resistant”. Moreover, the “average fold-difference in sensitivity” value in experiment [4] (KSHV- versus KSHV+ cell lines) is about 275 X. In experiment [4] (PEL cell lines), the LC95 was about 1 µM. Besides, the “DNA synthesis (EdU incorporation)” value in experiment [5] was “suppressed DNA synthesis”. Also, the “inhibition of active heterodimer p65/p50 binding to the NF-κB response element” value in experiment [6] (BC3, 24 hours) is recorded as “effectively inhibited”. In addition, the “doses effective in inhibiting NF-κB in PELs” value in experiment [6] (PEL cells) is 10 to 50 µM.
